According to US20250145665A1, “MACROCYCLIC PEPTIDES USEFUL AS MODULATORS OF TNF ALPHA” (Bristol-Myers Squibb Company, priority 2023, published 2025):
Starred links: 1 amine or outer side, 2 acyl side, 3 side chain; linkers in the order of their positions; H or OH if unused. Positions of bridges follow the written chain, without caps; N, C: chain ends. Non-standard residues stand in square brackets, D forms with d. Residues, ends and D or L forms follow the SMILES beside them. *: point of attachment. Bip(4'-NHCO-C6H4-4-CH2COOH) = N[C@@H](Cc1ccc(-c2ccc(NC(=O)c3ccc(CC(=O)O)cc3)cc2)cc1)C(=O)O; Bip(4'-(3-HOOC-benzamido)) = N[C@@H](Cc1ccc(-c2ccc(NC(=O)c3cccc(C(=O)O)c3)cc2)cc1)C(=O)O; Bip(4'-NH) = O=C([C@H](Cc1ccc(-c2ccc(N[*:3])cc2)cc1)N[*:1])[*:2]; Indazole3carbonyl(1-CH2COOH) = O=C(O)Cn1nc(C(=O)*)c2ccccc21; Bip(4'-COOH) = N[C@@H](Cc1ccc(-c2ccc(C(=O)O)cc2)cc1)C(=O)O; Bip(4'-NHAc) = CC(=O)Nc1ccc(-c2ccc(C[C@H](N)C(=O)O)cc2)cc1; X49 = O=C([C@H](Cc1ccc(-c2cccc(N[*:3])c2)cc1)N[*:1])[*:2]; X30 = N#Cc1ccc(CCNC(=N)NCCC[C@@H](N[*:1])C(=O)[*:2])cc1; dArg(ω-Bn) = N=C(NCCC[C@@H](N)C(=O)O)NCc1ccccc1; Ala(morpholin-4-yl) = N[C@@H](CN1CCOCC1)C(=O)O; Benzoyl(3-OCH2COOH) = O=C(O)COc1cccc(C(=O)*)c1; Phe(3-CONH2) = NC(=O)c1cccc(C[C@H](N)C(=O)O)c1; X85 = N=C(N)c1cccc(C[C@H](N[*:1])C(=O)[*:2])c1; Bip = N[C@@H](Cc1ccc(-c2ccccc2)cc1)C(=O)O; Tiq1c(1S) = O=C(O)[C@H]1NCCc2ccccc21; 2Pal = N[C@@H](Cc1ccccn1)C(=O)O; 2Thi = N[C@@H](Cc1cccs1)C(=O)O; Cha = N[C@@H](CC1CCCCC1)C(=O)O; Chg = N[C@H](C(=O)O)C1CCCCC1; Tle = CC(C)(C)[C@H](N)C(=O)O; X50 = O=C(O)COc1ccccc1C(=O)*; Sar = CNCC(=O)O

Target: TNFα (Homo sapiens, UniProt P01375)
Sequence (P01375 77-233 limits assumed): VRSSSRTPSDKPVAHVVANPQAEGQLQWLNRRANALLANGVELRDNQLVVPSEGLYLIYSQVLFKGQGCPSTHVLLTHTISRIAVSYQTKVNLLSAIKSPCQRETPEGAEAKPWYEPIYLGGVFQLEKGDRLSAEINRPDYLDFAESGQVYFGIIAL
Experiment: TNF-Induced HEK-Blue Assay
Format: cell-based
Settings: not given

Row | SMILES | IC50
1 | CC(C)C[C@@H]1NC(=O)[C@H](CCCNC(=N)N)NC(=O)[C@H](C(C)C)NC(=O)[C@@H]2CCCN2C(=O)[C@H](C(C)C)NC(=O)[C@@H](CCCNC(=N)NCCc2ccc(C#N)cc2)NC(=O)[C@H](CC(=O)O)NC(=O)[C@@H]2CCCN2C(=O)CN(C)C(=O)[C@H](Cc2ccc(-c3ccc(NC(=O)c4nn(CC(=O)O)c5ccccc45)cc3)cc2)NC(=O)[C@H](Cc2ccc(-c3ccccc3)cc2)NC(=O)[C@H](CN2CCOCC2)NC(=O)CSC[C@@H](C(=O)NCC(N)=O)NC1=O [Example 428] ({CH2CO}-[Ala(morpholin-4-yl)][Bip][Bip(4'-NH)](Indazole3carbonyl(1-CH2COOH))[Sar]PD[X30]VPVRLCG-NH2; thioether N-13) | 50 to 200 nM
2 | CC(C)C[C@@H]1NC(=O)[C@H](Cc2cccs2)NC(=O)[C@H](C(C)C)NC(=O)[C@@H]2CCCN2C(=O)[C@H](C(C)C)NC(=O)[C@@H](CCCNC(=N)NCc2ccccc2)NC(=O)[C@H](CC(=O)O)NC(=O)[C@H](Cc2ccccn2)NC(=O)CN(C)C(=O)[C@H](Cc2ccc(-c3ccc(NC(=O)c4nn(CC(=O)O)c5ccccc45)cc3)cc2)NC(=O)[C@H](Cc2ccc(-c3ccccc3)cc2)NC(=O)[C@H](CN2CCOCC2)NC(=O)CSC[C@@H](C(=O)NCC(N)=O)NC1=O [Example 638] ({CH2CO}-[Ala(morpholin-4-yl)][Bip][Bip(4'-NH)](Indazole3carbonyl(1-CH2COOH))[Sar][2Pal]D[dArg(ω-Bn)]VPV[2Thi]LCG-NH2; thioether N-13) | < 50 nM

Same assay, conditions: HEK-Blue-CD40L cells, NF-kB-driven secreted alkaline phosphatase reporter; TNFα 0.5 ng/ml; 18 h; read-out: TNF induced HEK-Blue assay IC50 value

Row | SMILES | IC50
3 | CC[C@H](C)[C@@H]1NC(=O)[C@@H](CCCNC(=N)N)NC(=O)[C@H](CC(=O)O)NC(=O)[C@H](Cc2cnc[nH]2)NC(=O)CN(C)C(=O)[C@H](Cc2ccc(-c3ccc(NC(=O)c4cccc(C(=O)O)c4)cc3)cc2)NC(=O)[C@H](Cc2ccc(-c3ccc(C(=O)O)cc3)cc2)NC(=O)[C@H](CC2CCCCC2)NC(=O)CSC[C@@H](C(=O)NCC(N)=O)NC(=O)[C@H](CC(C)C)NC(=O)[C@H](Cc2cnc[nH]2)NC(=O)[C@H](C(C)C)NC(=O)[C@@H]2c3ccccc3CCN2C1=O [Example 374] ({CH2CO}-[Cha][Bip(4'-COOH)][Bip(4'-(3-HOOC-benzamido))][Sar]HD[dR]I[Tiq1c(1S)]VHLCG-NH2; thioether N-13) | < 50 nM
4 | CC[C@H](C)[C@@H]1NC(=O)[C@@H]2CCCN2C(=O)[C@H]([C@@H](C)CC)NC(=O)[C@@H](CCCNC(=N)N)NC(=O)[C@H](CC(=O)O)NC(=O)[C@H](Cc2ccccn2)NC(=O)CN(C)C(=O)[C@H](Cc2ccc(-c3ccc(NC(C)=O)cc3)cc2)NC(=O)[C@H](Cc2ccc(-c3ccccc3)cc2)NC(=O)[C@H](C(C)(C)C)NC(=O)CSC[C@@H](C(=O)NCC(N)=O)NC(=O)[C@H](CC(C)C)NC(=O)[C@H](Cc2cccc(C(=N)N)c2)NC1=O [Example 297] ({CH2CO}-[Tle][Bip][Bip(4'-NHAc)][Sar][2Pal]D[dR]IPI[X85]LCG-NH2; thioether N-13) | < 50 nM
5 | CC(C)C[C@@H]1NC(=O)[C@H](CCCNC(=N)N)NC(=O)[C@H](C(C)C)NC(=O)[C@@H]2CCCN2C(=O)[C@H](C(C)C)NC(=O)[C@@H](CCCNC(=N)N)NC(=O)[C@H](CC(=O)O)NC(=O)[C@@H]2CCCN2C(=O)CN(C)C(=O)[C@H](Cc2ccc(-c3cccc(NC(=O)c4ccccc4OCC(=O)O)c3)cc2)NC(=O)[C@H](Cc2ccc(-c3ccccc3)cc2)NC(=O)[C@H](CN2CCOCC2)NC(=O)CSC[C@@H](C(=O)NCC(N)=O)NC1=O [Example 327] ({CH2CO}-[Ala(morpholin-4-yl)][Bip][X49](X50)[Sar]PD[dR]VPVRLCG-NH2; thioether N-13) | 50 to 200 nM
6 | CC(=O)Nc1ccc(-c2ccc(C[C@@H]3NC(=O)[C@H](Cc4ccc(-c5ccc(C(=O)O)cc5)cc4)NC(=O)[C@H](CN4CCOCC4)NC(=O)CSC[C@@H](C(=O)NCC(N)=O)NC(=O)[C@H](CC(C)C)NC(=O)[C@H](CCCNC(=N)N)NC(=O)[C@H](C(C)C)NC(=O)[C@@H]4CCCN4C(=O)[C@H](C(C)C)NC(=O)[C@H](CCCNC(=N)N)NC(=O)[C@H](CC(=O)O)NC(=O)[C@H](Cc4ccc(O)cc4)NC(=O)CN(C)C3=O)cc2)cc1 [Example 191] ({CH2CO}-[Ala(morpholin-4-yl)][Bip(4'-COOH)][Bip(4'-NHAc)][Sar]YDRVPVRLCG-NH2; thioether N-13) | 50 to 200 nM

Next, values leading:

Row | IC50 | SMILES
7 | < 50 nM | CC(C)C[C@@H]1NC(=O)[C@H](Cc2c[nH]cn2)NC(=O)[C@H](C2CCCCC2)NC(=O)[C@@H]2CCCN2C(=O)[C@H](C(C)C)NC(=O)[C@@H](CCCNC(=N)N)NC(=O)[C@H](CC(=O)O)NC(=O)[C@H](Cc2cnc[nH]2)NC(=O)CN(C)C(=O)[C@H](Cc2ccc(-c3ccc(NC(=O)c4cccc(C(=O)O)c4)cc3)cc2)NC(=O)[C@H](Cc2ccc(-c3ccccc3)cc2)NC(=O)[C@H](CC2CCCCC2)NC(=O)CSC[C@@H](C(=O)NCC(N)=O)NC1=O [Example 514] ({CH2CO}-[Cha][Bip][Bip(4'-(3-HOOC-benzamido))][Sar]HD[dR]VP[Chg]HLCG-NH2; thioether N-13)
8 | < 50 nM | CC[C@H](C)[C@@H]1NC(=O)[C@@H](CCCNC(=N)N)NC(=O)[C@H](CC(=O)O)NC(=O)[C@H](Cc2cnc[nH]2)NC(=O)CN(C)C(=O)[C@H](Cc2ccc(-c3ccc(NC(=O)c4ccc(CC(=O)O)cc4)cc3)cc2)NC(=O)[C@H](Cc2ccc(-c3ccc(C(=O)O)cc3)cc2)NC(=O)[C@H](C(C)(C)C)NC(=O)CSC[C@@H](C(=O)NCC(N)=O)NC(=O)[C@H](CC(C)C)NC(=O)[C@H](Cc2cnc[nH]2)NC(=O)[C@H](C(C)C)NC(=O)[C@@H]2CCCN2C1=O [Example 486] ({CH2CO}-[Tle][Bip(4'-COOH)][Bip(4'-NHCO-C6H4-4-CH2COOH)][Sar]HD[dR]IPVHLCG-NH2; thioether N-13)
9 | < 50 nM | CC(C)C[C@@H]1NC(=O)[C@H](Cc2cccc(C(N)=O)c2)NC(=O)[C@H](C(C)C)NC(=O)[C@@H]2CCCN2C(=O)[C@H](C(C)C)NC(=O)[C@@H](CCCNC(=N)NCc2ccccc2)NC(=O)[C@H](CC(=O)O)NC(=O)[C@H](Cc2ccc(O)cc2)NC(=O)CN(C)C(=O)[C@H](Cc2ccc(-c3ccc(NC(=O)c4ccc(CC(=O)O)cc4)cc3)cc2)NC(=O)[C@H](Cc2ccc(-c3ccccc3)cc2)NC(=O)[C@H](CN2CCOCC2)NC(=O)CSC[C@@H](C(=O)NCC(N)=O)NC1=O [Example 602] ({CH2CO}-[Ala(morpholin-4-yl)][Bip][Bip(4'-NHCO-C6H4-4-CH2COOH)][Sar]YD[dArg(ω-Bn)]VPV[Phe(3-CONH2)]LCG-NH2; thioether N-13)
10 | < 50 nM | CC[C@H](C)[C@@H]1NC(=O)[C@@H](CCCNC(=N)N)NC(=O)[C@H](CC(=O)O)NC(=O)[C@H](Cc2cnc[nH]2)NC(=O)CN(C)C(=O)[C@H](Cc2ccc(-c3ccc(NC(=O)c4cccc(OCC(=O)O)c4)cc3)cc2)NC(=O)[C@H](Cc2ccc(-c3ccccc3)cc2)NC(=O)[C@H](CC2CCCCC2)NC(=O)CSC[C@@H](C(=O)NCC(N)=O)NC(=O)[C@H](CC(C)C)NC(=O)[C@H](Cc2c[nH]cn2)NC(=O)[C@H](C(C)C)NC(=O)[C@@H]2c3ccccc3CCN2C1=O [Example 516] ({CH2CO}-[Cha][Bip][Bip(4'-NH)](Benzoyl(3-OCH2COOH))[Sar]HD[dR]I[Tiq1c(1S)]VHLCG-NH2; thioether N-13)
